For 18 molecules, DC50 results are on record in patent publication US20240343733A1, “COMPOUNDS FOR TARGETING DEGRADATION OF IRAK4 PROTEINS” (BIOGEN MA INC., priority 2021, published 2024).

This assay addresses T1, IRAK4 (Homo sapiens, UniProt Q9NWZ3).
T1 construct: 293Tcells expressing HiBiT-tagged IRAK4 were then added into 384-well plates
T1 sequence (Q9NWZ3 1-460): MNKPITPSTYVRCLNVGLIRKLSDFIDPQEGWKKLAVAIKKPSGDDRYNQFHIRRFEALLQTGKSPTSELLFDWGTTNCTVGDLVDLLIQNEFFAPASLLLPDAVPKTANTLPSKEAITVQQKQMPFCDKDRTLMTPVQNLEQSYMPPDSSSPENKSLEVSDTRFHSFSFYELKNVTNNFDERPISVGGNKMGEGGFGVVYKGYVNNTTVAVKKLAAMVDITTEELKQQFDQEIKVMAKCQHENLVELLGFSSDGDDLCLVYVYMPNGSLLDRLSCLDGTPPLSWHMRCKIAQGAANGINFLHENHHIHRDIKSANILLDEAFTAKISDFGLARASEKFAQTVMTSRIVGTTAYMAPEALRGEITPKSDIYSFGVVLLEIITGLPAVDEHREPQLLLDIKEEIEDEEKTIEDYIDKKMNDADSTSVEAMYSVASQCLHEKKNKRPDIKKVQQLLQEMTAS
The assay is described as follows: IRAK4 Degradation Assay, HiBiT Method. The note with it: 293T cells expressing HiBiT-tagged IRAK4, 6 hours. Format: cell-based. The method, then: Assay 1. IRAK4 Degradation Assay, HiBiT Method
Selected compounds were tested in an IRAK4 degradation assay using the HiBiT Method.
Phenol red-free Dulbecco's modified Eagle medium (DMEM) and fetal bovine serum (FBS) were purchased from Gibco (Grand Island, NY, USA). The Nano-Glo® HiBiT Lytic Assay System was purchased from Promega (Madison, WI, USA). Cell culture flasks and 384-well microplates were acquired from VWR (Radnor, PA, USA). The 293Tcell line was engineered by knocking-in a HiBiT fusion tag into the C-terminal of the IRAK4 gene in 293T cells (Synthego, Redwood City, CA, USA).
IRAK4 degradation was measured via the quantification of luminescent signals using the Nano-Glo® HiBiT Lytic Assay kit. Test compounds were added to 384-well plates in duplicate using an 11-point half-log dilution series, with the highest dose set at […]. 293Tcells expressing HiBiT-tagged IRAK4 were then added into 384-well plates at a cell density of 10,000 cells per well. The plates were kept at 37° C. with 5% CO2 for 6 hours. Cells that were treated only with DMSO served as the negative control; wells that contained only assay media served as the background control. After the 6-hour incubation, Nano-Glo® HiBiT Lytic Assay reagents were added to the cells. Luminescence was acquired using an EnVision™ Multilabel Reader (PerkinElmer, Santa Clara, CA, USA).
In the case of `CC(C)Oc1cc2nc([C@H]3CC[C@H](CN(C)C4CCN(c5cccc(NC6CCC(=O)NC6=O)c5)CC4)CC3)cn2cc1C(=O)Nc1cccc(C(F)(F)F)n1` (stereo partly drawn) [Example 9, 2-[4-[[[1-[3-[(2,6-dioxo-3-piperidyl)amino]phenyl]-4-piperidyl]-methyl-amino]methyl]cyclohexyl]-7-isopropoxy-N-[6-(trifluoromethyl)-2-pyridyl]imidazo[1,2-a]pyridine-6-carboxamide], the DC50 lay in the range of 500 to 1000 nM.

For the molecule `CC(C)Oc1cc2nc([C@H]3CC[C@H](CN(C)C4CCN(c5ccc6c(c5)n(C)c(=O)n6C5CCC(=O)NC5=O)CC4)CC3)cn2cc1C(=O)Nc1cccc(C(F)(F)F)n1` (stereo partly drawn) [Example 10, 2-[4-[[[1-[1-(2,6-dioxo-3-piperidyl)-3-methyl-2-oxo-benzimidazol-5-yl]-4-piperidyl]-methyl-amino]methyl]cyclohexyl]-7-isopropoxy-N-[6-(trifluoromethyl)-2-pyridyl]imidazo[1,2-a]pyridine-6-carboxamide], the DC50 fell in the range of 10 to 100 nM.

Regarding `CC(C)Oc1cc2nc([C@H]3CC[C@H](CN4CCC(c5ccc6c(c5)n(C)c(=O)n6C5CCC(=O)NC5=O)CC4)CC3)cn2cc1C(=O)Nc1cccc(C(F)(F)F)n1` (stereo partly drawn) [Example 5, 2-[4-[[4-[1-(2,6-dioxo-3-piperidyl)-3-methyl-2-oxo-benzimidazol-5-yl]-1-piperidyl]methyl]cyclohexyl]-7-isopropoxy-N-[6-(trifluoromethyl)-2-pyridyl]imidazo[1,2-a]pyridine-6-carboxamide], the DC50 fell in the range of 500 to 1000 nM.

Take `CC(C)Oc1cc2nc([C@H]3CC[C@H](CN(C)C4CCN(c5ccc6c(c5)n(C)c(=O)n6C5CCC(=O)NC5=O)CC4)CC3)cn2cc1C(=O)Nc1cccc(C(F)F)n1` (stereo partly drawn) [Example 27, N-[6-(difluoromethyl)-2-pyridyl]-2-[4-[[[1-[1-(2,6-dioxo-3-piperidyl)-3-methyl-2-oxo-benzimidazol-5-yl]-4-piperidyl]-methyl-amino]methyl]cyclohexyl]-7-isopropoxy-imidazo[1,2-a]pyridine-6-carboxamide]: the DC50 is 10 to 100 nM.

In turn, `CC(C)Oc1cc2nc([C@H]3CC[C@H](CN4CCC(c5ccc(C6CCC(=O)NC6=O)cc5)C(F)(F)C4)CC3)cn2cc1C(=O)Nc1cccc(C(F)F)n1` (stereo partly drawn) [Example 25, N-[6-(difluoromethyl)-2-pyridyl]-2-[4-[[4-[4-(2,6-dioxo-3-piperidyl)phenyl]-3,3-difluoro-1-piperidyl]methyl]cyclohexyl]-7-isopropoxy-imidazo[1,2-a]pyridine-6-carboxamide] registered a DC50 of 100 to 500 nM.

Regarding `CC(C)Oc1cc2nc([C@H]3CC[C@H](CN4CCC(c5ccc6c(c5)n(C)c(=O)n6C5CCC(=O)NC5=O)CC4)CC3)cn2cc1C(=O)Nc1cccc(C(F)F)n1` (stereo partly drawn) [Example 19, N-[6-(difluoromethyl)-2-pyridyl]-2-[4-[[4-[1-(2,6-dioxo-3-piperidyl)-3-methyl-2-oxo-benzimidazol-5-yl]-1-piperidyl]methyl]cyclohexyl]-7-isopropoxy-imidazo[1,2-a]pyridine-6-carboxamide], the DC50 was below 10 nM.

`CC(C)Oc1nc2nc(C3CCN(C(=O)N(C)C4CCN(c5ncc(C6CCC(=O)NC6=O)cc5F)CC4)CC3)cn2cc1C(=O)Nc1cccn([C@H]2C[C@H]2F)c1=O` (stereo partly drawn) [Example 193] yielded a DC50 of 10 to 100 nM.

For the molecule `CC(C)Oc1nc2nc(C3CCN(C(=O)CC4CC5(C4)CN(c4ccc(C6CCC(=O)NC6=O)cn4)C5)CC3)cn2cc1C(=O)Nc1cccn([C@H]2C[C@H]2F)c1=O` (stereo partly drawn) [Example 196], the DC50 is below 10 nM.

`CC(C)Oc1cc2nc(C3CCN(C(=O)CN4CCC(c5cnc(NC6CCC(=O)NC6=O)nc5)CC4)CC3)cn2cc1C(=O)Nc1cccc(C(F)F)n1` (stereo not drawn) [Example 85, N-[6-(difluoromethyl)-2-pyridyl]-2-[1-[2-[4-[2-[(2,6-dioxo-3-piperidyl)amino]pyrimidin-5-yl]-1-piperidyl]acetyl]-4-piperidyl]-7-isopropoxy-imidazo[1,2-a]pyridine-6-carboxamide] came in with a DC50 of 10 to 100 nM.

Regarding `CC(C)Oc1cc2nc(C3CCN(CC(=O)N4CCC(c5ccc(C6(F)CCC(=O)NC6=O)cc5)CC4)CC3)cn2cc1C(=O)Nc1ccn(C)n1` (stereo not drawn) [Example 102, 2-[1-[2-[4-[4-(3-fluoro-2,6-dioxo-3-piperidyl)phenyl]-1-piperidyl]-2-oxo-ethyl]-4-piperidyl]-7-isopropoxy-N-(1-methylpyrazol-3-yl)imidazo[1,2-a]pyridine-6-carboxamide], the 50% degradation concentration (DC50) fell in the range of 10 to 100 nM.

For `CC(C)Oc1cc2nn([C@H]3CC[C@H](CN4CCC(c5ccc6c(N7CCC(=O)NC7=O)nn(C)c6c5)CC4)CC3)cc2cc1C(=O)Nc1cccn([C@H]2C[C@H]2F)c1=O` [Example 144, 2-((1r,4S)-4-((4-(3-(2,4-dioxotetrahydropyrimidin-1(2H)-yl)-1-methyl-1H-indazol-6-yl)piperidin-1-yl)methyl)cyclohexyl)-N-(1-((1S,2R)-2-fluorocyclopropyl)-2-oxo-1,2-dihydropyridin-3-yl)-6-isopropoxy-2H-indazole-5-carboxamide], the DC50 was below 10 nM.

On to `CC(C)Oc1nc2nc([C@H]3CC[C@H](CN4CCC(c5ccc6c(c5)n(C)c(=O)n6C5CCC(=O)NC5=O)CC4)CC3)cn2cc1C(=O)Nc1cccn([C@H]2C[C@H]2F)c1=O` (stereo partly drawn) [Example 192], for which the DC50 was below 10 nM.

The molecule `CC(C)Oc1cc2nc(C3CCN(C(=O)CC4CCN(c5ncc(C6CCC(=O)NC6=O)cc5F)CC4)CC3)cn2cc1C(=O)Nc1cccn([C@H]2C[C@H]2F)c1=O` (stereo partly drawn) [Example 161, 2-(1-(2-(1-(5-(2,6-dioxopiperidin-3-yl)-3-fluoropyridin-2-yl)piperidin-4-yl)acetyl)piperidin-4-yl)-N-(1-((1S,2R)-2-fluorocyclopropyl)-2-oxo-1,2-dihydropyridin-3-yl)-7-isopropoxyimidazo[1,2-a]pyridine-6-carboxamide] returned a DC50 of 10 to 100 nM.

The molecule `CC(C)Oc1cc2nc([C@H]3CC[C@H](CN4CCC(c5cccc(NC6CCC(=O)NC6=O)c5)CC4)CC3)cn2cc1C(=O)Nc1cccc(C(F)F)n1` (stereo partly drawn) [Example 26, N-[6-(difluoromethyl)-2-pyridyl]-2-[4-[[4-[3-[(2,6-dioxo-3-piperidyl)amino]phenyl]-1-piperidyl]methyl]cyclohexyl]-7-isopropoxy-imidazo[1,2-a]pyridine-6-carboxamide] had a DC50 of 100 to 500 nM.

In the case of `CC(C)Oc1cc2nc(C3CCN(C(=O)CC4CCN(c5ccc6c([C@H]7CCC(=O)NC7=O)nn(C)c6c5)CC4)CC3)cn2cc1C(=O)Nc1cccc(C(F)F)n1` [Example 91, (R)—N-(6-(difluoromethyl)pyridin-2-yl)-2-(1-(2-(1-(3-(2,6-dioxopiperidin-3-yl)-1-methyl-1H-indazol-6-yl)piperidin-4-yl)acetyl)piperidin-4-yl)-7-isopropoxyimidazo[1,2-a]pyridine-6-carboxamide], the half-maximal degradation concentration (DC50) is 10 to 100 nM.

As for `CC(C)Oc1cc2nc([C@H]3CC[C@H](CN4CC[C@H](c5ccc6c(N7CCC(=O)NC7=O)nn(C)c6c5)[C@H](O)C4)CC3)cn2cc1C(=O)Nc1cccn([C@H]2C[C@H]2F)c1=O` [Example 171, 2-((1S,4S)-4-(((3S,4R)-4-(3-(2,4-dioxotetrahydropyrimidin-1(2H)-yl)-1-methyl-1H-indazol-6-yl)-3-hydroxypiperidin-1-yl)methyl)cyclohexyl)-N-(1-((1S,2R)-2-fluorocyclopropyl)-2-oxo-1,2-dihydropyridin-3-yl)-7-isopropoxyimidazo[1,2-a]pyridine-6-carboxamide], the DC50 was below 10 nM.

Molecule `CC(C)Oc1cc2nc(C3CCN(C(=O)CN4CCC(c5cc(F)c(C6CCC(=O)NC6=O)cc5F)CC4)CC3)cn2cc1C(=O)Nc1cnn2cccnc12` (stereo not drawn) [Example 77, 2-[1-[2-[4-[4-(2,6-dioxo-3-piperidyl)-2,5-difluoro-phenyl]-1-piperidyl]acetyl]-4-piperidyl]-7-isopropoxy-N-pyrazolo[1,5-a]pyrimidin-3-yl-imidazo[1,2-a]pyridine-6-carboxamide] had a 50% degradation concentration (DC50) of 10 to 100 nM.

The molecule `CC(C)Oc1cc2nc([C@H]3CC[C@H](CN(C)C4CCN(c5cccc(C6CCC(=O)NC6=O)c5)CC4)CC3)cn2cc1C(=O)Nc1cccc(C(F)F)n1` (stereo partly drawn) [Example 28, N-[6-(difluoromethyl)-2-pyridyl]-2-[4-[[[1-[3-(2,6-dioxo-3-piperidyl)phenyl]-4-piperidyl]-methyl-amino]methyl]cyclohexyl]-7-isopropoxy-imidazo[1,2-a]pyridine-6-carboxamide] had a DC50 of 10 to 100 nM.
